From ChEMBL document CHEMBL1201862, “PubChem BioAssay data set” (2004)
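The compound was tested at five concentrations on cells cultured in 96-well plates, with a 48-hour exposure period. Abbreviation: GI50, concentration required for 50% inhibition of growth.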 Active and inactive are the calls of the source. No stated cut-off is given here; in the data, active = GI50 up to about 1.1 µM and inactive = higher.

Experiments:
Experiment in all cases: inhibition of tumour cell growth, NCI panel, 48 h
[1] = tested on: A498
[2] = tested on: A549
[3] = tested on: HT-29
[4] = tested on: K562
[5] = tested on: M14
[6] = tested on: MOLT-4
[7] = tested on: Malme-3M
[8] = tested on: NCI-H460
[9] = tested on: NCI-H522
[10] = tested on: OVCAR-3
[11] = tested on: RXF 393
[12] = tested on: SF-539
[13] = tested on: SK-MEL-2
[14] = tested on: SK-OV-3
[15] = tested on: SNB-75
[16] = tested on: SR
[17] = tested on: SW-620
[18] = tested on: UACC-62
[19] = tested on: DMS-273
[20] = tested on: XF498

Measured: GI50

O=C(O)C1(Cc2ccccc2)Cc2ccccc2C1
inactive: [1] > 100 µM | [2] > 100 µM | [3] > 100 µM | [4] > 100 µM | [5] > 100 µM | [6] > 100 µM | [7] > 100 µM | [8] > 100 µM | [9] > 100 µM | [10] > 100 µM | [11] 69.7 µM | [12] > 100 µM | [13] > 100 µM | [14] > 100 µM | [15] 10.6 µM | [16] > 100 µM | [17] > 100 µM | [18] > 100 µM

CN(C)CCCNC(=O)c1cccc2ccccc12
inactive: [2] > 100 µM | [19] > 100 µM | [3] > 100 µM | [4] > 100 µM | [6] > 100 µM | [7] > 100 µM | [8] > 100 µM | [9] > 100 µM | [10] > 100 µM | [11] > 100 µM | [12] > 100 µM | [13] > 100 µM | [14] > 100 µM | [15] > 100 µM | [17] > 100 µM | [18] > 100 µM | [20] > 100 µM

CC12CCC3=C(CSC4=C3CSc3ccccc34)C1=CCCC2=O (configuration not stated)
inactive: [2] 36.5 µM | [19] 82.8 µM | [3] 34.1 µM | [4] 40.8 µM | [5] 27.8 µM | [6] 16.8 µM | [7] 31 µM | [8] 45.2 µM | [9] 27.4 µM | [10] 13.5 µM | [11] 40.2 µM | [12] 75.7 µM | [13] 64.3 µM | [16] 65.8 µM | [17] > 100 µM | [20] 19.7 µM

Nc1nc(=O)[nH]c2c1cnn2COCCO
inactive: [1] > 100 µM | [2] > 100 µM | [19] > 100 µM | [3] > 100 µM | [4] > 100 µM | [5] > 100 µM | [6] > 100 µM | [7] > 100 µM | [8] > 100 µM | [11] 22.3 µM | [12] > 100 µM | [13] > 100 µM | [15] > 100 µM | [16] > 100 µM | [17] > 100 µM | [20] > 100 µM

C[C@H]1SC(c2ccc(Cl)cc2Cl)N(NC(=O)c2ccncc2)C1=O (some centres not stated)
inactive: [1] 12.4 µM | [3] 53 µM | [4] 23.5 µM | [5] 21.8 µM | [6] > 10 µM | [7] 64.1 µM | [8] 45.5 µM | [9] 22.6 µM | [10] 42 µM | [11] 14.7 µM | [13] 24.3 µM | [14] 65.2 µM | [15] 45.7 µM | [16] 55.8 µM | [18] 26.2 µM
